17 molecules from patent publication US20050272677A1, “Delivery of a substance to a pre-determined site” (priority 2002, published 2005) can be followed below.

The nature of the series: Gelation experiment (gel formation in solvents). Also noted: key to Gelation properties: g = gel; i = insoluble; p = precipitate; sol = soluble. Type of series: physicochemical. The procedure: To obtain a gel or to thicken the solvent, the compound is mixed with the required solvent or a mixture of solvents in an amount between 0.01 and 50 wt. %, based on the weight of the composition. Typically, the dissolution of the components will be performed by heating (in some cases it may be helpful to homogenize the components, e.g., vortex) them together at temperatures of 20° C. to 200° C., preferably 50° C. to 150° C. Cooling these hot solutions to a preferred temperature in the range of −20° C. to 100° C., preferably 4° C. to 100° C. affords the gel or thickened solvent. […] In an alternative embodiment, the gelling agent is first dissolved in a polar or apolar solvent followed by the addition of another solvent or solvent mixture, thereby causing gelation to take place.
It will be understood that the use of the present gelling agents or thickeners to prepare a gel or to thicken a composition is also encompassed by the invention. As is well-known, gelling behavior of compounds or compositions is highly unpredictable. […] Preferably, the gelling phenomenon is thermoreversible.
In a typical gelation experiment, a carefully weighed amount of the dithienylcyclopentene derivative under investigation and 1 ml of the solvent are placed in a test tube, which is sealed and then heated until the compound is dissolved. The solution is allowed to cool to room temperature. […] The gelation process could be followed by UV-vis and CD spectroscopy as depicted in FIG. 58. At low concentrations (0.35 mM), compound D is dissolved in toluene. […] Increasing the concentration to 1.8 mM causes gelation of the solvent, which is accompanied by a change of the UV-visible spectrum, together with the appearance of a strong CD signal at 323 nm (FIG. 58, panels (a) and (c)). Similar changes in the UV-vis and CD spectrum are observed upon gelation of the 1.8 mM solution of D in toluene by cooling to a temperature below the sol-gel phase transition (from here on, referred to as gel(o)). From a plot of the increase of the CD signal versus the temperature, the sol-gel phase transition temperature of gel(o) was determined to be 29° C. for a 1.8 mM solution of D in toluene.

As for `CC(NC(=O)[C@H](Cc1ccccc1)NC(=O)[C@H]1C[C@@H](C(=O)N[C@@H](Cc2ccccc2)C(=O)N[C@H](C)C(=O)O)C[C@@H](C(=O)N[C@@H](Cc2ccccc2)C(=O)N[C@H](C)C(=O)O)C1)C(=O)O` (some centres unmarked) [gelator 11, CHexAm(L)Phe(D)AlaOH], the solvents gelated result was “water and lower alcohols”.

`O=C(O)C(Cc1ccccc1)NC(=O)[C@H]1C[C@@H](C(=O)NC(Cc2ccccc2)C(=O)O)C[C@@H](C(=O)NC(Cc2ccccc2)C(=O)O)C1` (mixture of isomers) [10a, CHexAmPheOH (mixture of isomers)]: the solvents gelated entry was “water”.

Regarding `O=C(NC(Cc1ccccc1)C(=O)O)C1CC(C(=O)NC(Cc2ccccc2)C(=O)O)CC(C(=O)NC(Cc2ccccc2)C(=O)O)C1` (single isomer, unassigned) [LLL diasteroisomer, CHexAmPheOH], the solvents gelated result is recorded as “only gelates lower alcohols”.

Regarding `Cc1sc(C(=O)N[C@H](C)C2CCCCC2)cc1C1=C(c2cc(C(=O)N[C@H](C)C3CCCCC3)sc2C)CCC1` [Compound E, 1,2-Bis(2′-methyl-5′-{(((R)-1-cyclohexylethyl)amino)carbonyl}thien-3′-yl)cyclopentene], the solvents gelated entry was “hexadecane, cyclohexane, 1-phenyloctane, toluene, n-butylether, benzene, tetralin, 1,4-dioxane, and n-butyl acetate”.

Consider CHex-Am-Met-Am-Borate, for which the solvents gelated entry is “water and lower alcohols”.

In the case of `COC(=O)CC[C@H](NC(=O)[C@H]1C[C@@H](C(=O)N[C@@H](CCC(=O)OC)C(=O)OC)C[C@@H](C(=O)N[C@@H](CCC(=O)OC)C(=O)OC)C1)C(=O)OC` [gelator 7, CHexAmGluOMe], the solvents gelated entry was “both organic solvents and water”.

On to CHex-Am-Ser(Bzl)-Am-Borate, for which the solvents gelated entry was “water and lower alcohols”.

As to `O=C(N[C@@H](Cc1ccccc1)C(=O)O)[C@H]1C[C@@H](C(=O)N[C@H](Cc2ccccc2)C(=O)O)C[C@@H](C(=O)N[C@H](Cc2ccccc2)C(=O)O)C1` [10b, CHexAmPheOH (DDL)], the solvents gelated entry is listed as “water”.

Consider CHexAmPheAmGluOH [gelator 13], for which the solvents gelated result is on record as “water”.

As for `COC(=O)C[C@H](NC(=O)[C@H]1C[C@@H](C(=O)N[C@@H](CC(=O)OC)C(=O)OC)C[C@@H](C(=O)N[C@@H](CC(=O)OC)C(=O)OC)C1)C(=O)OC` [gelator 8, CHexAmAspOMe], the solvents gelated result was “both organic solvents and water”.

As to (1S,2S) CHex-bisurea dihexylamine [5a], the Gelation properties entry is, setting by setting: (1 N NaHCO3) “i”; (1 N NaOH) “i”; (25% Ammonia) “g”; (buffer PH 5.7) “sol”; (buffer PH 7.2) “p”; (buffer PH 7.9) “g”. Moreover, the Gelation properties entry (water) was “g”.

In the case of `Cc1sc(C(=O)Nc2ccccc2)cc1C1=C(c2cc(C(=O)Nc3ccccc3)sc2C)CCC1` [Compound C, 1,2-Bis(5′-(anilinocarbonyl)-2′-methyl-thien-3′-yl) cyclopentene], the solvents gelated was 1-phenyloctane, toluene, n-butylether, benzene, tetralin.

With `O=C(O)CCNC(=O)[C@H](Cc1ccccc1)NC(=O)[C@H]1C[C@@H](C(=O)N[C@@H](Cc2ccccc2)C(=O)NCCC(=O)O)C[C@@H](C(=O)N[C@@H](Cc2ccccc2)C(=O)NCCC(=O)O)C1` [gelator 12, cHexAm(L)Phe(β)AlaOH], the solvents gelated result is given as “water”.

For the molecule CHex-Am-Phe-Am-Borate, the solvents gelated entry is “water and lower alcohols”.

With `CC(C)[C@H](NC(=O)[C@H]1C[C@@H](C(=O)N[C@H](C(=O)O)C(C)C)C[C@@H](C(=O)N[C@H](C(=O)O)C(C)C)C1)C(=O)O` [CHex-Am-Val-OH], the solvents gelated entry was “water”.

Turning to `COC(=O)[C@H](Cc1c[nH]cn1)NC(=O)[C@H](CCSC)NC(=O)[C@@H]1C[C@H](C(=O)NC(CCSC)C(=O)N[C@H](Cc2c[nH]cn2)C(=O)OC)C[C@H](C(=O)N[C@@H](CCSC)C(=O)N[C@@H](Cc2c[nH]cn2)C(=O)OC)C1` (some centres unmarked) [gelator 14, CHexAmMetHisOMe], the solvents gelated result is “water”.

CHex-Am-Met-Am-EtOH: the solvents gelated entry was “water”.
